Reference: patent US20120138147A1, “PHOTOELECTRIC CONVERSION ELEMENT, MANUFACTURING METHOD OF THE SAME AND ELECTRONIC EQUIPMENT” (Sony Corporation, priority 2010, published 2012)

assay: physchem
Description: Here, Ka is the dissociation equilibrium constant of a conjugate acid in water. This additive is typically a pyridine-based additive or an additive having a heterocycle. […] However, the pyridine-based additives are not limited thereto. On the other hand, among specific examples of additives having a heterocycle are N-methylimidazole(MIm), 2,4-lutidine(24-Lu), 2,5-lutidine(25-Lu), 2,6-lutidine(26-Lu), 3,4-lutidine(34-Lu) and 3,5-lutidine(35-Lu). However, the additives having a heterocycle are not limited thereto.

Compound | pKa (water) | pKa
COc1ccccn1 [2-MeO—Py] | 3.28 | 
Brc1cccnc1 [3-Br—Py] | 2.84 | 
COC(=O)c1cccnc1 [3-COOMe—Py] | 3.13 | 
COc1cccnc1 [3-MeO—Py] | 4.88 | 
N#Cc1ccncc1 [4-CN—Py] | 1.9 | 
CCc1ccncc1 [4-Et—Py, 4-ethylpyridine] |  | 6.04
CNc1ccncc1 [4-MeNH—Py] | 12.5 | 
COc1ccncc1 [4-MeO—py, 4-methoxypyridine] | 6.62 | 6.62
Nc1ccncc1 [4-NH2—Py] | 9.17 | 
c1ccc2c(c1)ccc1ncccc12 [56-benzoquinoline] | 5.15 | 
c1ccc2nc3ccccc3cc2c1 [acridine] |  | 5.6
c1ccnnc1 [pyridazine] |  | 2.1
c1ccc2ncccc2c1 [quinoline] |  | 4.97

Now from value to compound:

pKa (water) | pKa | Compound
6.03 |  | Cc1ccncc1 [4-pic]
 | 6.72 | Cc1ccnc(C)c1 [24-Lu, 2,4-lutidine]
 | 6.47 | Cc1ccc(C)nc1 [25-Lu, 2,5-lutidine]
6.77 | 6.77 | Cc1cccc(C)n1 [26-Lu, 2,6-lutidine]
 | 6.52 | Cc1ccncc1C [34-Lu, 3,4-lutidine]
 | 6.14 | Cc1cncc(C)c1 [35-Lu, 3,5-lutidine]
 | 7.3 | Cn1ccnc1 [Mlm, N-methylimidazole]
5.6 |  | Cn1cnc2ccccc21 [NMB]
 | 5.99 | CC(C)(C)c1ccncc1 [TBP, 4-tert-butylpyridine]
4.42 |  | c1ccc(-c2ccccn2)nc1 [bpy]
 | 5.38 | c1ccc2cnccc2c1 [isoquinoline]
 | 0.6 | c1cnccn1 [pyrazine]
2.1 |  | Me-pyrazole
